From publication PMC7792806, “Development of Second Generation Activity-Based Chemical Probes for Sirtuins” (Molecules, 2020)

Target: SIRT6 (Homo sapiens, UniProt Q8N6T7)
Assay: Sirtuin inhibition assay (HPLC), SIRT6
Format: biochemical
Parameters: host or cells: E. coli (inferred from b12)
Conditions: substrate H3K9Ac; 500 μM NAD+, 500 μM peptide, 10 μM sirtuin, pH 7.5, 37 °C; NI = Not inhibited
Description: Plasmids of SIRT1 (full length), SIRT2 (38-356), SIRT3 (102-399), and SIRT5 (34-302) were generous gifts from Dr. Hening Lin (Cornell University, Ithaca, NY, USA). SIRT6 was a gift from Cheryl Arrowsmith (Addgene plasmid #28271). The proteins were expressed and purified according to previously published protocols. The identity of the protein was confirmed by tryptic digestion followed by LC-MS/MS analysis performed at the Vermont Genetic Network (VGN) Proteomics Facility. Protein concentrations were determined by Bradford assay (Thermo Fisher Scientific, Rockford, IL, USA).
A typical reaction contained 500 μM NAD^+ and 500 μM peptide substrate (H3K9Ac for SIRT2, SIRT3 and SIRT6, p53K382Ac for SIRT1 and SIRT5) of varying concentrations of a small molecule probe in 100 mM phosphate buffer pH 7.5. The reactions were initiated by the addition of 10 μM of sirtuin and were incubated at 37 °C before being quenched by 8 μL of 10% TFA. The incubation time was controlled so that the conversion of substrate was less than 15%. The samples were then injected on an HPLC fitted to a Macherey-Nagel Nucleosil C18 column. NAD^+, NAM and AADPR (acetyl-ADP-ribose) peaks were resolved using a gradient of 0 to 20% methanol in 20 mM ammonium acetate. Chromatograms were analyzed at 260 nm. Reactions were quantified by integrating areas of peaks corresponding to NAD^+ and AADPR. […]

SIRT6, sequence (Q8N6T7 whole entry): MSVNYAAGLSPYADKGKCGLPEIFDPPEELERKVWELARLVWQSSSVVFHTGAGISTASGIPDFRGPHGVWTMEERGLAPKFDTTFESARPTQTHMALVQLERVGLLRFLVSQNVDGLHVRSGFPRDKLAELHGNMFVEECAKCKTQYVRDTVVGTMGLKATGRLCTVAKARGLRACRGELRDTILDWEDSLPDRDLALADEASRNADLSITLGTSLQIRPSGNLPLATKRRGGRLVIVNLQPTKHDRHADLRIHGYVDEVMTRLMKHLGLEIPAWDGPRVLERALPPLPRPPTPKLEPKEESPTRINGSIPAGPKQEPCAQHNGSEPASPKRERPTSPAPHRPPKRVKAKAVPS

With C#CCCCC1(CCC(=O)N[C@@H](CCCCNC(=S)CCC(=O)O)C(=O)N[C@@H](C)C(=O)N[C@@H](C)C(=O)OC)N=N1 [Probe 2B] as the molecule, how does the IC50 read?
Its IC50 is over 5 mM.
